How the values were obtained:
Type in all cases: binding
DAPK1 = molecular target: T1, DAPK1 (Homo sapiens, UniProt P53355); assay: KINOMEscan; settings: read-out: %Ctrl @ 10000nM
T1 construct: purchased DiscoverX KINOMEscan

CAMKK2 = molecular target: T2, CAMKK2 (Homo sapiens, UniProt Q96RR4); assay: KINOMEscan; settings: read-out: %Ctrl @ 10000nM
T2 construct: purchased DiscoverX KINOMEscan

MRCKA = molecular target: T3, MRCKA (Homo sapiens, UniProt Q5VT25); assay: KINOMEscan; settings: read-out: %Ctrl @ 10000nM
T3 construct: purchased DiscoverX KINOMEscan

TGFBR1 = molecular target: T4, TGFBR1 (Homo sapiens, UniProt P36897); assay: KINOMEscan; settings: read-out: %Ctrl @ 10000nM
T4 construct: purchased DiscoverX KINOMEscan

LIMK1 = molecular target: T5, LIMK1 (Homo sapiens, UniProt P53667); assay: KINOMEscan; settings: read-out: %Ctrl @ 10000nM
T5 construct: purchased DiscoverX KINOMEscan

YANK1 = molecular target: T6, YANK1 (Homo sapiens, UniProt Q8WU08); assay: KINOMEscan; settings: read-out: %Ctrl @ 10000nM
T6 construct: DNA label for qPCR (T7 phage fusion or DNA tag); purchased DiscoverX scanMAX; host or cells: E. coli BL21-derived (T7 phage) or HEK-293

AMPK-alpha2 = molecular target: T7, AMPK-alpha2 (Homo sapiens, UniProt P54646); assay: KINOMEscan; settings: read-out: %Ctrl @ 10000nM
T7 construct: purchased DiscoverX KINOMEscan

LIMK2 = molecular target: T8, LIMK2 (Homo sapiens, UniProt P53671); assay: KINOMEscan; settings: read-out: %Ctrl @ 10000nM
T8 construct: purchased DiscoverX KINOMEscan

RAF1 = molecular target: T9, RAF1 (Homo sapiens, UniProt P04049); assay: KINOMEscan; settings: read-out: %Ctrl @ 10000nM
T9 construct: purchased DiscoverX KINOMEscan

GRK2 = molecular target: T10, GRK2 (Homo sapiens, UniProt P25098); assay: KINOMEscan; settings: read-out: %Ctrl @ 10000nM
T10 construct: purchased DiscoverX KINOMEscan

FLT4 = molecular target: T11, FLT4 (Homo sapiens, UniProt P35916); assay: KINOMEscan; settings: read-out: %Ctrl @ 10000nM
T11 construct: purchased DiscoverX KINOMEscan

SYK = molecular target: T12, SYK (Homo sapiens, UniProt P43405); assay: KINOMEscan; settings: read-out: %Ctrl @ 10000nM
T12 construct: purchased DiscoverX KINOMEscan

CDK7 = molecular target: T13, CDK7 (Homo sapiens, UniProt P50613); assay: KINOMEscan; settings: read-out: %Ctrl @ 10000nM
T13 construct: purchased DiscoverX KINOMEscan

TXK = molecular target: T14, TXK (Homo sapiens, UniProt P42681); assay: KINOMEscan; settings: read-out: %Ctrl @ 10000nM
T14 construct: DNA label for qPCR (T7 phage fusion or DNA tag); purchased DiscoverX scanMAX; host or cells: E. coli BL21-derived (T7 phage) or HEK-293

TTK = molecular target: T15, TTK (Homo sapiens, UniProt P33981); assay: KINOMEscan; settings: read-out: %Ctrl @ 10000nM
T15 construct: DNA label for qPCR (T7 phage fusion or DNA tag); purchased DiscoverX scanMAX; host or cells: E. coli BL21-derived (T7 phage) or HEK-293

INSRR = molecular target: T16, INSRR (Homo sapiens, UniProt P14616); assay: KINOMEscan; settings: read-out: %Ctrl @ 10000nM
T16 construct: purchased DiscoverX KINOMEscan

NDR2 = molecular target: T17, NDR2 (Homo sapiens, UniProt Q9Y2H1); assay: KINOMEscan; settings: read-out: %Ctrl @ 10000nM
T17 construct: purchased DiscoverX KINOMEscan

CSNK2A1 = molecular target: T18, CSNK2A1 (Homo sapiens, UniProt P68400); assay: KINOMEscan; settings: read-out: %Ctrl @ 10000nM
T18 construct: purchased DiscoverX KINOMEscan

EGFR = molecular target: T19, EGFR (Homo sapiens, UniProt P00533); assay: KINOMEscan; settings: read-out: %Ctrl @ 10000nM
T19 construct: purchased DiscoverX KINOMEscan

EPHA5 = molecular target: T20, EPHA5 (Homo sapiens, UniProt P54756); assay: KINOMEscan; settings: read-out: %Ctrl @ 10000nM
T20 construct: purchased DiscoverX KINOMEscan

p38-delta = molecular target: T21, p38-delta (Homo sapiens, UniProt O15264); assay: KINOMEscan; settings: read-out: %Ctrl @ 10000nM
T21 construct: purchased DiscoverX KINOMEscan

TLK1 = molecular target: T22, TLK1 (Homo sapiens, UniProt Q9UKI8); assay: KINOMEscan; settings: read-out: %Ctrl @ 10000nM
T22 construct: purchased DiscoverX KINOMEscan

STK35 = molecular target: T23, STK35 (Homo sapiens, UniProt Q8TDR2); assay: KINOMEscan KdELECT
T23 construct: DNA tag for qPCR (T7 phage fusion or DNA label); purchased DiscoverX KdELECT; host or cells: E. coli BL21-derived (T7 phage) or HEK-293

CSNK1A1L = molecular target: T24, CSNK1A1L (Homo sapiens, UniProt Q8N752); assay: KINOMEscan; settings: read-out: %Ctrl @ 10000nM
T24 construct: purchased DiscoverX KINOMEscan

[1] = molecular target: T25, TYK2(JH2domain-pseudokinase) (Homo sapiens, UniProt P29597); assay: KINOMEscan; settings: read-out: %Ctrl @ 10000nM
T25 construct: TYK2(JH2domain-pseudokinase); DNA label for qPCR (T7 phage fusion or DNA tag); purchased DiscoverX scanMAX; host or cells: E. coli BL21-derived (T7 phage) or HEK-293

PIK3CG = molecular target: T26, PIK3CG (Homo sapiens, UniProt P48736); assay: KINOMEscan; settings: read-out: %Ctrl @ 10000nM
T26 construct: purchased DiscoverX KINOMEscan

SIK = molecular target: T27, SIK (Homo sapiens, UniProt P57059); assay: KINOMEscan; settings: read-out: %Ctrl @ 10000nM
T27 construct: purchased DiscoverX KINOMEscan

EGFR(S752-I759del) = molecular target: T28, EGFR(S752-I759del) (Homo sapiens, UniProt P00533, DEL752-759); assay: KINOMEscan; settings: read-out: %Ctrl @ 10000nM
T28 construct: purchased DiscoverX KINOMEscan

p38-beta = molecular target: T29, p38-beta (Homo sapiens, UniProt Q15759); assay: KINOMEscan; settings: read-out: %Ctrl @ 10000nM
T29 construct: purchased DiscoverX KINOMEscan

ERK8 = molecular target: T30, ERK8 (Homo sapiens, UniProt Q8TD08); assay: KINOMEscan; settings: read-out: %Ctrl @ 10000nM
T30 construct: purchased DiscoverX KINOMEscan

PYK2 = molecular target: T31, PYK2 (Homo sapiens, UniProt Q14289); assay: KINOMEscan; settings: read-out: %Ctrl @ 10000nM
T31 construct: purchased DiscoverX KINOMEscan

STK36 = molecular target: T32, STK36 (Homo sapiens, UniProt Q9NRP7); assay: KINOMEscan; settings: read-out: %Ctrl @ 10000nM
T32 construct: purchased DiscoverX KINOMEscan

[2] = molecular target: T33, RSK2(Kin.Dom.2-C-terminal) (Homo sapiens, UniProt P51812); assay: KINOMEscan; settings: read-out: %Ctrl @ 10000nM
T33 construct: RSK2(Kin.Dom.2-C-terminal); purchased DiscoverX KINOMEscan

CDC2L2 = molecular target: T34, CDC2L2 (Homo sapiens, UniProt Q9UQ88); assay: KINOMEscan; settings: read-out: %Ctrl @ 10000nM
T34 construct: purchased DiscoverX KINOMEscan

HIPK3 = molecular target: T35, HIPK3 (Homo sapiens, UniProt Q9H422); assay: KINOMEscan; settings: read-out: %Ctrl @ 10000nM
T35 construct: purchased DiscoverX KINOMEscan

WEE1 = molecular target: T36, WEE1 (Homo sapiens, UniProt P30291); assay: KINOMEscan; settings: read-out: %Ctrl @ 10000nM
T36 construct: DNA label for qPCR (T7 phage fusion or DNA tag); purchased DiscoverX scanMAX; host or cells: E. coli BL21-derived (T7 phage) or HEK-293

[3] = molecular target: T37, JAK2(JH1domain-catalytic) (Homo sapiens, UniProt O60674); assay: KINOMEscan; settings: read-out: %Ctrl @ 10000nM
T37 construct: JAK2(JH1domain-catalytic); purchased DiscoverX KINOMEscan

T23 sequence (Q8TDR2 whole entry, the tested form may be a part): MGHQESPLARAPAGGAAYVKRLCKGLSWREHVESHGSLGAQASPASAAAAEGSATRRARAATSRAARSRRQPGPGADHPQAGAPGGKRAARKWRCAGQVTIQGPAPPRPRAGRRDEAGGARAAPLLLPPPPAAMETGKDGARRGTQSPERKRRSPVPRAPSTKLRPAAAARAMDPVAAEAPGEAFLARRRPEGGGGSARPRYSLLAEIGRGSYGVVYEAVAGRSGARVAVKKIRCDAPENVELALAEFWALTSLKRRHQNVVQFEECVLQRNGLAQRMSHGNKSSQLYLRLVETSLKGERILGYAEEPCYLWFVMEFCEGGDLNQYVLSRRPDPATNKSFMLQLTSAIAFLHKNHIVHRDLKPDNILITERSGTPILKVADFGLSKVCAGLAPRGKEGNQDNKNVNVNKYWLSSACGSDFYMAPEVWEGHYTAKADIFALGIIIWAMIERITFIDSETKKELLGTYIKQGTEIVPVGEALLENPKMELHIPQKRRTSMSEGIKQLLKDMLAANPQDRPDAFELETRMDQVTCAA
T5 sequence (P53667 whole entry): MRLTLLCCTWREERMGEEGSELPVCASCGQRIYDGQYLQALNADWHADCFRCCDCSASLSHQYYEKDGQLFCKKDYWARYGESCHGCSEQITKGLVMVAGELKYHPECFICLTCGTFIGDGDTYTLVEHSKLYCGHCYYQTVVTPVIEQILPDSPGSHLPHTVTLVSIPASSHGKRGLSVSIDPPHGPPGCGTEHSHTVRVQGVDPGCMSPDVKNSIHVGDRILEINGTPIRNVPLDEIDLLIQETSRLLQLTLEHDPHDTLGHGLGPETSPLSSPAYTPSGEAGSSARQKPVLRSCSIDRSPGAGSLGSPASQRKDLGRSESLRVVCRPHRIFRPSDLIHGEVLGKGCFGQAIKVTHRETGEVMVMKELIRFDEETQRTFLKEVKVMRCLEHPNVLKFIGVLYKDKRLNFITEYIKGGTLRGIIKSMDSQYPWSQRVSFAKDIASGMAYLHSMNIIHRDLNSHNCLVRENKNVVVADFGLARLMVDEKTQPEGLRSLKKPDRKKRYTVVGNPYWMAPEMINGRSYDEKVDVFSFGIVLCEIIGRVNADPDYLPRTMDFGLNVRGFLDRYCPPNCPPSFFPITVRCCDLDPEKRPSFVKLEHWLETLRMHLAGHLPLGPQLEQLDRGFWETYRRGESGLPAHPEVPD
T34 sequence (Q9UQ88 whole entry): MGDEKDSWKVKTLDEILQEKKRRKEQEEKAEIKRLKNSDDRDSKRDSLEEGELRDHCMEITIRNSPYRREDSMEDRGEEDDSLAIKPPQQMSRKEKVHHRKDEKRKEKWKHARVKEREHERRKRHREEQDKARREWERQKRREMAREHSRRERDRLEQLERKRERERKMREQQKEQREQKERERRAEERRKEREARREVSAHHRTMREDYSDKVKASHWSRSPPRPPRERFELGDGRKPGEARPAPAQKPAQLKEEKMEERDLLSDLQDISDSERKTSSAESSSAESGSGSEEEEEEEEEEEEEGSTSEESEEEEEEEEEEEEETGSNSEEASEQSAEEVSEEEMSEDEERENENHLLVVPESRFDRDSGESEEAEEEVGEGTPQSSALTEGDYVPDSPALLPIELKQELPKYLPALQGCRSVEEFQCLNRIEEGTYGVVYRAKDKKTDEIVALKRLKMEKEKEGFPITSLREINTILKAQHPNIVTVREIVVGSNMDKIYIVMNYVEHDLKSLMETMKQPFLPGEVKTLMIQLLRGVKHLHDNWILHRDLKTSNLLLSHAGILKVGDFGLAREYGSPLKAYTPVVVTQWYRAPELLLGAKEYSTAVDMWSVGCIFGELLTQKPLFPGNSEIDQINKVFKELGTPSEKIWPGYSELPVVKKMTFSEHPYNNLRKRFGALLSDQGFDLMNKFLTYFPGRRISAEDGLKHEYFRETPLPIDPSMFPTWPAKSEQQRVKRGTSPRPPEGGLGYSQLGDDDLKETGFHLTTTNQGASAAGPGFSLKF
T4 sequence (P36897 34-503): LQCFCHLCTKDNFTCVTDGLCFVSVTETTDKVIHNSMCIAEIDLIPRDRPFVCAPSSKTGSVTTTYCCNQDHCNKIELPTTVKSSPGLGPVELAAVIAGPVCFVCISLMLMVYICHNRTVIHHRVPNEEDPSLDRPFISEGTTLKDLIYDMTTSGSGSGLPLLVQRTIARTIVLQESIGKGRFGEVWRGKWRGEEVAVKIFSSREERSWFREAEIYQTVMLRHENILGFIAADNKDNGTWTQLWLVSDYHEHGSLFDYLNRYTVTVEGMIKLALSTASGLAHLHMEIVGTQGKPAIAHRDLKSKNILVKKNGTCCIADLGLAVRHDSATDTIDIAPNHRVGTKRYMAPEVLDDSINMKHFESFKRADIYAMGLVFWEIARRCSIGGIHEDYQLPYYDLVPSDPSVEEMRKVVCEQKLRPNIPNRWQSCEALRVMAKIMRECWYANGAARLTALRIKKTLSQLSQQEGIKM
T8 sequence (P53671 whole entry): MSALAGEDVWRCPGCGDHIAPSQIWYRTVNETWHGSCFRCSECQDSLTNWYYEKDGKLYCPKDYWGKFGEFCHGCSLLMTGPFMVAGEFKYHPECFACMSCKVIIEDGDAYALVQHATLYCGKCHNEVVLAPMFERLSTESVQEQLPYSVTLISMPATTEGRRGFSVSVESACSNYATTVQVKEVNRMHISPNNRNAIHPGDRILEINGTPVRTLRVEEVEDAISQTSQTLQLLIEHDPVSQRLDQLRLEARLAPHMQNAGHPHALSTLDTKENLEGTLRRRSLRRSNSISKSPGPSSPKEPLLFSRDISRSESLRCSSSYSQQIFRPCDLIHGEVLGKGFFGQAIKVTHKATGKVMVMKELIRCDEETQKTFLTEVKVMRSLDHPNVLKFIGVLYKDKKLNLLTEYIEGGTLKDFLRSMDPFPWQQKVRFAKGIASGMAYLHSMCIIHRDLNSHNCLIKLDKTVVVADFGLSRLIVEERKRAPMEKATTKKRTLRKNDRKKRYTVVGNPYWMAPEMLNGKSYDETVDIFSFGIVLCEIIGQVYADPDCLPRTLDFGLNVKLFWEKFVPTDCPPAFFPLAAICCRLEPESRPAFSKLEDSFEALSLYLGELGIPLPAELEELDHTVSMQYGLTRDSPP
T9 sequence (P04049 whole entry): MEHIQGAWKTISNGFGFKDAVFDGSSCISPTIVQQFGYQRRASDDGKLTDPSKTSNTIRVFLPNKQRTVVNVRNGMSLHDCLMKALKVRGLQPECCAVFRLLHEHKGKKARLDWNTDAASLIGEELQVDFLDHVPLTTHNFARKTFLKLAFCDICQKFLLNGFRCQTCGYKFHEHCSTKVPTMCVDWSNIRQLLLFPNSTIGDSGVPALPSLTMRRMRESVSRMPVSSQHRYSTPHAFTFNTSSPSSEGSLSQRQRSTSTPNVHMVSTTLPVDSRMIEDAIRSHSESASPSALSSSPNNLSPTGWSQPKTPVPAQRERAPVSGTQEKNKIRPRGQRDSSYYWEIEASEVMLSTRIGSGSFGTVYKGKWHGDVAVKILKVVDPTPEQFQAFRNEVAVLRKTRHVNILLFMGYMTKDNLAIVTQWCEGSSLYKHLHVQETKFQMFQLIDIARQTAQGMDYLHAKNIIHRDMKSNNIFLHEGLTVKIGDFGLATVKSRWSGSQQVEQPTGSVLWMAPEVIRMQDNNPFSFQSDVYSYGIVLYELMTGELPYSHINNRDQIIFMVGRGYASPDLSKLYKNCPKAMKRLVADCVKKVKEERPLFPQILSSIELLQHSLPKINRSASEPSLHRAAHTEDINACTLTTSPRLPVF
T15 sequence (P33981 whole entry, the tested form may be a part): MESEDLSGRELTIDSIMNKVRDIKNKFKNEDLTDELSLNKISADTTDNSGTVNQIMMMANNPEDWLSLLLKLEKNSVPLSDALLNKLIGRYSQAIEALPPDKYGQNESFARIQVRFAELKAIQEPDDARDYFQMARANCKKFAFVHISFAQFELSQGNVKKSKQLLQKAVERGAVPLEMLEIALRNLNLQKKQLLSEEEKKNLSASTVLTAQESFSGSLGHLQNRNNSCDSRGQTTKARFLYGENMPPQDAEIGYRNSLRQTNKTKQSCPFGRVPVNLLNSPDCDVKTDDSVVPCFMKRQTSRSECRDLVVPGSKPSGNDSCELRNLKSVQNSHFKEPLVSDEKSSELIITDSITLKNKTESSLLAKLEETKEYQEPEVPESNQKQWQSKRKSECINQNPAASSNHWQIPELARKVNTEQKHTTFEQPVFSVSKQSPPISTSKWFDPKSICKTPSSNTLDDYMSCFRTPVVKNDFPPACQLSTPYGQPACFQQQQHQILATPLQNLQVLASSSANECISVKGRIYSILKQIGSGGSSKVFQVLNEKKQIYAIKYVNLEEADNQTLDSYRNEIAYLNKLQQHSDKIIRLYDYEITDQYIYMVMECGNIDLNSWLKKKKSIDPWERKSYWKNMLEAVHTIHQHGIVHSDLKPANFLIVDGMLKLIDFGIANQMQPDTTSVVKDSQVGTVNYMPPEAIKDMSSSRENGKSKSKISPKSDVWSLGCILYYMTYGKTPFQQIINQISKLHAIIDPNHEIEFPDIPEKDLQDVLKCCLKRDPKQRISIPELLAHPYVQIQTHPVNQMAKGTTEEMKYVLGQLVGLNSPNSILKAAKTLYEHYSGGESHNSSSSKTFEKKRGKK
T29 sequence (Q15759 whole entry): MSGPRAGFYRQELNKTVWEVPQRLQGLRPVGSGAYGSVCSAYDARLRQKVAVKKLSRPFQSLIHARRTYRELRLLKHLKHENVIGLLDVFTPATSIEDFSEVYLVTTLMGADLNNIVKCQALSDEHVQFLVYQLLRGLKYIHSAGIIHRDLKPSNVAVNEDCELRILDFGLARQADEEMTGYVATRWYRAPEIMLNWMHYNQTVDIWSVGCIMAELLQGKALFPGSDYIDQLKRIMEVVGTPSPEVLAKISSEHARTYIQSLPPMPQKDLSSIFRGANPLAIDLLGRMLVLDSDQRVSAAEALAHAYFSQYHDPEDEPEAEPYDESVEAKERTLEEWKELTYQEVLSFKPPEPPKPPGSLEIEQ

CC(C)c1ccc(CC(=O)N2CCN(c3ccc(C#N)nn3)CC2)cc1 [PZ-2891, 6-(4-(2-(4-isopropylphenyl)acetyl)piperazin-1-yl)pyridazine-3-carbonitrile]
remaining binding at 10 µM (DAPK1): 63%
remaining binding at 10 µM (CAMKK2): 87%
remaining binding at 10 µM (MRCKA): 92%
remaining binding at 10 µM (TGFBR1): 99%
remaining binding at 10 µM (LIMK1): 87%
remaining binding at 10 µM (YANK1): 74%
remaining binding at 10 µM (AMPK-alpha2): 100%
remaining binding at 10 µM (LIMK2): 95%
remaining binding at 10 µM (RAF1): 85%
remaining binding at 10 µM (GRK2): 56%
remaining binding at 10 µM (FLT4): 91%
remaining binding at 10 µM (SYK): 82%
remaining binding at 10 µM (CDK7): 79%
remaining binding at 10 µM (TXK): 92%
remaining binding at 10 µM (TTK): 96%
remaining binding at 10 µM (INSRR): 82%
remaining binding at 10 µM (NDR2): 94%
remaining binding at 10 µM (CSNK2A1): 82%
remaining binding at 10 µM (EGFR): 78%
remaining binding at 10 µM (EPHA5): 88%
remaining binding at 10 µM (p38-delta): 76%
remaining binding at 10 µM (TLK1): 72%
Kd (STK35; STK35): > 30 µM
Kd (STK35; STK35 Replicate ID = 1): > 30 µM
Kd (STK35; STK35 Replicate ID = 2): > 30 µM
remaining binding at 10 µM (CSNK1A1L): 100%
remaining binding at 10 µM [1]: 100%
remaining binding at 10 µM (PIK3CG): 96%
remaining binding at 10 µM (SIK): 83%
remaining binding at 10 µM (EGFR(S752-I759del)): 100%
remaining binding at 10 µM (p38-beta): 96%
remaining binding at 10 µM (ERK8): 81%
remaining binding at 10 µM (PYK2): 90%
remaining binding at 10 µM (STK36): 84%
remaining binding at 10 µM [2]: 89%
remaining binding at 10 µM (CDC2L2): 87%
remaining binding at 10 µM (HIPK3): 81%
remaining binding at 10 µM (WEE1): 92%
remaining binding at 10 µM [3]: 88%
